Measurements from US9980945B2, “Benzoisoxazole-substituted compounds as MGLUR4 allosteric potentiators, compositions, and methods of treating neurological dysfunction” (Vanderbilt University, priority 2015, dated 2018).

Target: mGluR4 (UniProt Q14833)
Test: mGluR4 potentiation assay (EC50 for potentiation at EC20 agonist; fluorometric plate reader, Ca2+ or thallium dye)
Assay type: cell-based
Conditions: potentiation of mGluR4; species of receptor not given
Protocol: The disclosed compounds and compositions can be evaluated for their ability to act as a potentiator of metabotropic glutamate receptor activity, in particular mGluR4 activity, by any suitable known methodology known in the art. For example, Chinese Hamster Ovary (CHO) cells transacted with human mGluR4 or HEK cells co-transfected with rat mGluR4 and the G-protein regulated Inwardly Rectifying Potassium channel (GIRK) were plated in clear bottom assay plates for assay in a Hamamatsu FDSS Fluorometric Plate Reader. The cells were loaded with either a Ca2+-sensitive fluorescent dye or the thallium responsive dye and the plates were washed and placed into a suitable kinetic plate reader. For human mGluR4 assays, a fluorescence baseline was established for 3-5 seconds, the disclosed compounds were then added to the cells, and the response in cells was measured. Approximately two and a half minutes later, a concentration of mGluR4 orthosteric agonist (e.g. glutamate or L-AP4) eliciting approximately 20% (EC20) of the maximal agonist response was added to the cells, and the response was measured. Two minutes later, a concentration of mGluR4 agonist (e.g. glutamate or L-AP4) eliciting 80% (EC80) of the maximal agonist response was added to the cells, and the response was measured. For rat mGluR4/GIRK experiments, a baseline was established for approximately five seconds, disclosed compounds were added, and either an EC20 or EC80 concentration of agonist was added approximately two and one half minutes later. Potentiation of the agonist response of mGluR4 by the disclosed compounds was observed as an increase in response to the EC20 concentration of agonist in the presence of compound compared to the response to agonist in the absence of compound. Similarly, antagonism of the agonist response of mGluR4 by the disclosed compounds was observed as a decrease in response to the EC80 concentration of agonist in the presence of compound compared to the response to agonist in the absence of compound.
The above described assay operated in two modes. In the first mode, a range of concentrations of the disclosed compounds are added to cells, followed by a single fixed concentration of agonist. If the compound acts as a potentiator, an EC50 so value for potentiation and a maximum extent of potentiation by the compound at this concentration of agonist is determined by non-linear curve fitting. If the compound acts as a noncompetitive antagonist, an IC50 value is determined by non-linear curve fitting. In the second mode, several fixed concentrations of the disclosed compounds are added to various wells on a plate, followed by a range in concentrations of agonist for each concentration of disclosed compound. The EC50 values for the agonist at each concentration of compound are determined by non-linear curve fitting. A decrease in the EC50 value of the agonist with increasing concentrations of the sample compound (a leftward shift of the agonist concentration-response curve) is an indication of the degree of mGluR4 potentiation at a given concentration of the sample compound. A decrease in the maximal response of the agonist with increasing concentrations of the sample compounds, with or without a rightward shift in agonist potency, is an indication of the degree of noncompetitive antagonism at mGluR4. The second mode also indicates whether the sample compounds also affect the maximum response to mGluR4 to agonists.

Row | EC50 [µM] | SMILES
1 | 0.976 | CC(C)c1noc2cc(Nc3n[nH]c4cccnc34)ccc12 [Example 155, 3-isopropyl-N-(1H-pyrazolo[4,3-b]pyridin-3-yl)-1,2-benzoxazol-6-amine]
2 | 1.75 | CN(Cc1cccnc1)C(=O)Cc1noc2cc(Nc3n[nH]c4cccnc34)ccc12 [Example 157, N-methyl-2-[6-(1H-pyrazolo[4,3-b]pyridin-3-ylamino)-1,2-benzoxazol-3-yl]-N-(3-pyridylmethyl)acetamide]
3 | 1.17 | CN(C(=O)Cc1noc2cc(Nc3n[nH]c4cccnc34)ccc12)c1cccnc1 [Example 158, N-methyl-2-[6-(1H-pyrazolo[4,3-b]pyridin-3-ylamino)-1,2-benzoxazol-3-yl]-N-(3-pyridyl)acetamide]
4 | 3.43 | CN(Cc1ccncc1)C(=O)Cc1noc2cc(Nc3n[nH]c4cccnc34)ccc12 [Example 160, N-methyl-2-[6-(1H-pyrazolo[4,3-b]pyridin-3-ylamino)-1,2-benzoxazol-3-yl]-N-(4-pyridylmethyl)acetamide]
5 | > 10 | O=C(Cc1noc2cc(Nc3n[nH]c4cccnc34)ccc12)N1CCCC1c1ccccn1 (centres unmarked) [Example 162]
6 | > 30 | CC(C)(C)Cc1noc2c(F)c(Nc3n[nH]c4cccnc34)ccc12 [Example 163, 3-(2,2-dimethylpropyl)-7-fluoro-N-(1H-pyrazolo[4,3-b]pyridin-3-yl)-1,2-benzoxazol-6-amine]
7 | > 30 | CC(C)(C)Cc1noc2c(F)c(Nc3n[nH]c4nccnc34)ccc12 [Example 164, 3-(2,2-dimethylpropyl)-7-fluoro-N-(1H-pyrazolo[3,4-b]pyrazin-3-yl)-1,2-benzoxazol-6-amine]
8 | 2.3 | CC(c1ccccn1)N(C)C(=O)Cc1noc2cc(Nc3n[nH]c4cccnc34)ccc12 (centres unmarked) [Example 165, N-methyl-2-[6-(1H-pyrazolo[4,3-b]pyridin-3-ylamino)-1,2-benzoxazol-3-yl]-N-[1-(2-pyridyl)ethyl]acetamide]
9 | 0.387 | COc1ncc(Cc2noc3cc(Nc4n[nH]c5cccnc45)ccc23)cn1 [Example 166, 3-[(2-methoxypyrimidin-5-yl)methyl]-N-(1H-pyrazolo[4,3-b]pyridin-3-yl)-1,2-benzoxazol-6-amine]
10 | > 30 | CC(C)(C)Cc1noc2cc(Nc3n[nH]c4cccnc34)c(F)cc12 [Example 167, 3-(2,2-dimethylpropyl)-5-fluoro-N-(1H-pyrazolo[4,3-b]pyridin-3-yl)-1,2-benzoxazol-6-amine]
11 | > 30 | c1cncc(OCc2noc3cc(Nc4n[nH]c5cccnc45)ccc23)c1 [Example 169, N-(1H-pyrazolo[4,3-b]pyridin-3-yl)-3-(3-pyridyloxymethyl)-1,2-benzoxazol-6-amine]
12 | 0.801 | CC(C)(C)Cc1noc2cc(Nc3n[nH]c4cccnc34)cnc12 [Example 171, 3-(2,2-dimethylpropyl)-N-(1H-pyrazolo[4,3-b]pyridin-3-yl)isoxazolo[4,5-b]pyridin-6-amine]

The next lines start with the compound.

Row | SMILES | EC50 [µM]
13 | CCCCC(C)(F)c1noc2cc(Nc3n[nH]c4cccnc34)ccc12 (centres unmarked) [Example 134, 3-(1-fluoro-1-methyl-pentyl)-N-(1H-pyrazolo[4,3-b]pyridin-3-yl)-1,2-benzoxazol-6-amine] | 2.66
14 | CCCCC(F)(F)c1noc2cc(Nc3n[nH]c4cccnc34)ccc12 [Example 136, 3-(1,1-difluoropentyl)-N-(1H-pyrazolo[4,3-b]pyridin-3-yl)-1,2-benzoxazol-6-amine] | > 10
15 | CC(NCC(C)(C)C)c1noc2cc(Nc3n[nH]c4cccnc34)ccc12 (centres unmarked) [Example 137, 3-[1-(2,2-dimethylpropylamino)ethyl]-N-(1H-pyrazolo[4,3-b]pyridin-3-yl)-1,2-benzoxazol-6-amine] | 0.822
16 | CCCCC(F)(F)c1noc2cc(Nc3n[nH]c4ncccc34)ccc12 [Example 138, 3-(1,1-difluoropentyl)-N-(1H-pyrazolo[3,4-b]pyridin-3-yl)-1,2-benzoxazol-6-amine] | > 10
17 | CC(c1ccc(=O)[nH]c1)c1noc2cc(Nc3n[nH]c4cccnc34)ccc12 (centres unmarked) [Example 139, 5-[1-[6-(1H-pyrazolo[4,3-b]pyridin-3-ylamino)-1,2-benzoxazol-3-yl]ethyl]-1H-pyridin-2-one] | > 10
18 | O=C(Cc1noc2cc(Nc3n[nH]c4cccnc34)ccc12)NC1CC(F)(F)C1 [Example 140, N-(3,3-difluorocyclobutyl)-2-[6-(1H-pyrazolo[4,3-b]pyridin-3-ylamino)-1,2-benzoxazol-3-yl]acetamide] | > 10
19 | O=C(Cc1noc2cc(Nc3n[nH]c4nccnc34)ccc12)NC1CC(F)(F)C1 [Example 141, N-(3,3-difluorocyclobutyl)-2-[6-(1H-pyrazolo[3,4-b]pyrazin-3-ylamino)-1,2-benzoxazol-3-yl]acetamide] | 0.277
20 | O=C(Cc1noc2cc(Nc3n[nH]c4ncccc34)ccc12)NC1CC(F)(F)C1 [Example 142, N-(33-difluorocyclobutyl)-2-[6-(1H pyrazolo[3,4-b]pyridin-3-ylamino)-1,2-benzoxazol-3-yl]acetamide] | > 10
21 | O=C(Cc1noc2cc(Nc3n[nH]c4cccnc34)ccc12)N1CCOCC1 [Example 143, 1-morpholino-2-[6-(1H-pyrazolo[4,3-b]pyridin-3-ylamino)-1,2-benzoxazol-3-yl]ethanone] | 1.36
22 | O=C(Cc1noc2cc(Nc3n[nH]c4cccnc34)ccc12)N1CC(F)(F)C1 [Example 144, 1-(3,3-difluoroazetidin-1-yl)-2-[6-(1H-pyrazolo[4,3-b]pyridin-3-ylamino)-1,2-benzoxazol-3-yl]ethanone] | 2.58
23 | CC(C)(C)Cc1noc2cc(Nc3n[nH]c4cccnc34)cc(F)c12 [Example 145, 3-(2,2-dimethylpropyl)-4-fluoro-N-(1H-pyrazolo[4,3-b]pyridin-3-yl)-1,2-benzoxazol-6-amine; 2,2,2-trifluoroacetate acid] | 1.45
24 | CC(C)(C)C(F)c1noc2cc(Nc3n[nH]c4cccnc34)ccc12 (centres unmarked) [Example 146, 3-(1-fluoro-2,2-dimethyl-propyl)-N-(1H-pyrazolo[4,3-b]pyridin-3-yl)-1,2-benzoxazol-6-amine] | 2.11
25 | CCCCC(F)c1noc2cc(Nc3n[nH]c4cccnc34)ccc12 (centres unmarked) [Example 147, 3-(1-fluoropentyl)-N-(1H-pyrazolo[4,3-b]pyridin-3-yl)-1H-benzoxazol-6-amine] | 1.49
26 | CC(C)(C)Cc1noc2cc(Nc3n[nH]c4ncccc34)cc(F)c12 [Example 148, 3-(2,2-dimethylpropyl)-4-fluoro-N-(1H-pyrazolo[3,4-b]pyridin-3-yl)-1,2-benzoxazol-6-amine] | > 30
27 | CC(C)(C)Cc1noc2cc(Nc3n[nH]c4nccnc34)cc(F)c12 [Example 149, 3-(2,2-dimethylpropyl)-4-fluoro-N-(1H-pyrazolo[3,4-b]pyrazin-3-yl)-1,2-benzoxazol-6-amine] | > 10
28 | CC(C)(C)Cc1noc2cc(Nc3n[nH]c4ncc(F)cc34)cc(F)c12 [Example 150, 3-(2,2-dimethylpropyl)-4-fluoro-N-(5-fluoro-1H-pyrazolo[3,4-b]pyridin-3-yl)-1,2-benzoxazol-6-amine] | > 10
29 | CC(C)(C)Cc1noc2cc(Nc3n[nH]c4cc(F)cnc34)cc(F)c12 [Example 151, 3-(2,2-dimethylpropyl)-4-fluoro-N-(6-fluoro-1H-pyrazolo[4,3-b]pyridin-3-yl)-1,2-benzoxazol-6-amine] | > 10
30 | O=C(NC(c1noc2cc(Nc3n[nH]c4cccnc34)ccc12)C(F)(F)F)c1nccs1 (centres unmarked) [Example 153, N-[2,2,2-trifluoro-1-[6-(1H-pyrazolo[4,3-b]pyridin-3-ylamino)-1,2-benzoxazol-3-yl]ethyl]thiazole-carboxamide] | 1.39
31 | CC(C)c1noc2cc(Nc3n[nH]c4ncccc34)ccc12 [Example 154, 3-isopropyl-N-(1H-pyrazolo[3,4-b]pyridin-3-yl)-1,2-benzoxazol-6-amine] | 0.586
32 | O=C(Cc1noc2cc(Nc3n[nH]c4cccnc34)ccc12)N1CCN(CC(F)(F)F)CC1 [Example 161, 2-[6-(1H-pyrazolo[4,3-b]pyridin-3-ylamino)-1,2-benzoxazol-3-yl]-1-[4-(2,2,2-trifluoroethyl)piperazin-1-yl]ethanone] | 1.87
